ChEMBL document CHEMBL1649501, “Integration of pharmacokinetic and pharmacodynamic indices of orbifloxacin in beagle dogs after a single intravenous and intramuscular administration” (Antimicrob Agents Chemother, 2009)
In brackets after ≈: the same amount, converted by molar mass.

Experiments:
Proteus mirabilis [1] = experiment: Antibacterial activity against Proteus mirabilis after 30 hrs by broth microdilution method; type: functional, organism-based
[2] = Apparent volume of distribution in Beagle dog at 2.5 mg/kg, iv; type: ADME, organism-based, Canis lupus familiaris; parameters: dose 2.5 mg/kg, route intravenous; details: in vivo, read-out: Vz
[3] = T>MIC in Beagle dog infected with Staphylococcus aureus at 2.5 mg/kg, iv; type: functional
[4] = Ratio of Cmax to MIC in Beagle dog infected with Staphylococcus intermedius at 2.5 mg/kg, im; type: functional; details: route intramuscular
[5] = Mean residence time (0 to infinity) in Beagle dog at 2.5 mg/kg, iv; type: ADME, organism-based, Canis lupus familiaris; parameters: dose 2.5 mg/kg, route intravenous; details: in vivo
[6] = Ratio of Cmax to MIC in Beagle dog infected with Escherichia coli at 2.5 mg/kg, im; type: functional; details: route intramuscular
[7] = Ratio of AUC (0 to 24 hrs) to MIC in Beagle dog infected with Staphylococcus intermedius at 2.5 mg/kg, iv; type: functional
[8] = Ratio of Cmax to MIC in Beagle dog infected with Proteus mirabilis at 2.5 mg/kg, im; type: functional; details: route intramuscular
[9] = Terminal half life in Beagle dog at 2.5 mg/kg, im; type: ADME, organism-based, Canis lupus familiaris; parameters: dose 2.5 mg/kg, route intramuscular; details: in vivo, read-out: beta t1/2 (converted)
[10] = T>MIC in Beagle dog infected with Staphylococcus intermedius at 2.5 mg/kg, iv; type: functional
[11] = AUC (0 to infinity) in Beagle dog at 2.5 mg/kg, im; type: ADME, organism-based, Canis lupus familiaris; parameters: time infinity, dose 2.5 mg/kg, route intramuscular; details: plasma
[12] = Mean residence time (0 to 24 hrs) in Beagle dog at 2.5 mg/kg, iv; type: ADME, organism-based, Canis lupus familiaris; parameters: dose 2.5 mg/kg, route intravenous; details: in vivo
[13] = Ratio of AUC (0 to 24 hrs) to MIC for bactericidal action in Beagle dog infected with Staphylococcus intermedius clinical isolate at 2.5 mg/kg, im; type: functional; details: route intramuscular
[14] = AUC (0 to infinity) in Beagle dog at 2.5 mg/kg, iv; type: ADME, organism-based, Canis lupus familiaris; parameters: time infinity, dose 2.5 mg/kg, route intravenous; details: plasma
Staphylococcus aureus [15] = experiment: Antibacterial activity against Staphylococcus aureus after 30 hrs by broth microdilution method; type: functional, organism-based
[16] = Ratio of AUC (0 to 24 hrs) to MIC in Beagle dog infected with Staphylococcus aureus at 2.5 mg/kg, im; type: functional; details: route intramuscular
[17] = Terminal half life in Beagle dog at 2.5 mg/kg, iv; type: ADME, organism-based, Canis lupus familiaris; parameters: dose 2.5 mg/kg, route intravenous; details: in vivo, read-out: beta t1/2 (converted)
[18] = tested on: Staphylococcus intermedius; experiment: Antibacterial activity against Staphylococcus intermedius after 30 hrs by broth microdilution method; type: functional, organism-based
[19] = Ratio of AUC (0 to 24 hrs) to MIC in Beagle dog infected with Staphylococcus intermedius at 2.5 mg/kg, im; type: functional; details: route intramuscular
Escherichia coli [20] = experiment: Antibacterial activity against Escherichia coli by broth microdilution method; type: functional
[21] = Ratio of AUC (0 to 24 hrs) to MIC in Beagle dog infected with Proteus mirabilis at 2.5 mg/kg, im; type: functional; details: route intramuscular
[22] = Clearance in Beagle dog at 2.5 mg/kg, iv; type: ADME, organism-based, Canis lupus familiaris; parameters: dose 2.5 mg/kg, route intravenous; details: in vivo
Canis familiaris = experiment: Mean absorption time in Beagle dog at 2.5 mg/kg, im; type: ADME, organism-based, Canis lupus familiaris; parameters: dose 2.5 mg/kg, route intramuscular; details: in vivo
[23] = Mean residence time (0 to 24 hrs) in Beagle dog at 2.5 mg/kg, im; type: ADME, organism-based, Canis lupus familiaris; parameters: dose 2.5 mg/kg, route intramuscular; details: in vivo
[24] = tested on: Staphylococcus intermedius; experiment: Antibacterial activity against Staphylococcus intermedius clinical isolate infected in Beagle dog assessed as bacterial load at 2.5 mg/kg, im after 24 hrs; type: functional; details: route intramuscular
[25] = Ratio of AUC (0 to 24 hrs) to MIC in Beagle dog infected with Escherichia coli at 2.5 mg/kg, iv; type: functional
[26] = Ratio of AUC (0 to 24 hrs) to MIC for bacterial elimination in Beagle dog infected with Staphylococcus intermedius clinical isolate at 2.5 mg/kg, im; type: functional; details: route intramuscular
[27] = T>MIC in Beagle dog infected with Proteus mirabilis at 2.5 mg/kg, im; type: functional; details: route intramuscular
[28] = AUC (0 to 24 hrs) in Beagle dog at 2.5 mg/kg, iv; type: ADME, organism-based, Canis lupus familiaris; parameters: time < 24 hr, dose 2.5 mg/kg, route intravenous; details: plasma
[29] = T>MIC in Beagle dog infected with Proteus mirabilis at 2.5 mg/kg, iv; type: functional
[30] = T>MIC in Beagle dog infected with Staphylococcus intermedius at 2.5 mg/kg, im; type: functional; details: route intramuscular
[31] = Elimination rate constant in Beagle dog at 2.5 mg/kg, iv; type: ADME, organism-based, Canis lupus familiaris; parameters: dose 2.5 mg/kg, route intravenous; details: in vivo
Staphylococcus aureus [32] = experiment: Antibacterial activity against Staphylococcus aureus by broth microdilution method; type: functional
[33] = Ratio of AUC (0 to 24 hrs) to MIC for bacteriostatic action in Beagle dog infected with Staphylococcus intermedius clinical isolate at 2.5 mg/kg, im; type: functional; details: route intramuscular
[34] = Ratio of AUC (0 to 24 hrs) to MIC in Beagle dog infected with Escherichia coli at 2.5 mg/kg, im; type: functional; details: route intramuscular
[35] = Ratio of AUC (0 to 24 hrs) to MIC in Beagle dog infected with Proteus mirabilis at 2.5 mg/kg, iv; type: functional
[36] = Ratio of AUC (0 to 24 hrs) to MIC50 in Beagle dog infected with Staphylococcus intermedius clinical isolate at 2.5 mg/kg, im; type: functional; details: route intramuscular
[37] = Ratio of AUC (0 to 24 hrs) to MIC in Beagle dog infected with Staphylococcus aureus at 2.5 mg/kg, iv; type: functional
[38] = T>MIC in Beagle dog infected with Escherichia coli at 2.5 mg/kg, iv; type: functional
Proteus mirabilis [39] = experiment: Antibacterial activity against Proteus mirabilis by broth microdilution method; type: functional
[40] = T>MIC in Beagle dog infected with Staphylococcus aureus at 2.5 mg/kg, im; type: functional; details: route intramuscular
[41] = T>MIC in Beagle dog infected with Escherichia coli at 2.5 mg/kg, im; type: functional; details: route intramuscular
[42] = Mean residence time (0 to infinity) in Beagle dog at 2.5 mg/kg, im; type: ADME, organism-based, Canis lupus familiaris; parameters: dose 2.5 mg/kg, route intramuscular; details: in vivo
[43] = tested on: Staphylococcus intermedius; experiment: Antibacterial activity against Staphylococcus intermedius by broth microdilution method; type: functional
Escherichia coli [44] = experiment: Antibacterial activity against Escherichia coli after 30 hrs by broth microdilution method; type: functional, organism-based
[45] = AUC (0 to 24 hrs) in Beagle dog at 2.5 mg/kg, im; type: ADME, organism-based, Canis lupus familiaris; parameters: time < 24 hr, dose 2.5 mg/kg, route intramuscular; details: plasma
[46] = Elimination rate constant in Beagle dog at 2.5 mg/kg, im; type: ADME, organism-based, Canis lupus familiaris; parameters: dose 2.5 mg/kg, route intramuscular; details: in vivo
[47] = Tmax in Beagle dog at 2.5 mg/kg, im; type: ADME, organism-based, Canis lupus familiaris; parameters: dose 2.5 mg/kg, route intramuscular; details: in vivo
[48] = Ratio of Cmax to MIC in Beagle dog infected with Staphylococcus aureus at 2.5 mg/kg, im; type: functional; details: route intramuscular
Staphylococcus aureus [49] = experiment: Antibacterial activity against Staphylococcus aureus ATCC 29213 by broth microdilution method; type: functional
[50] = Bioavailability in Beagle dog at 2.5 mg/kg, im; type: ADME, organism-based, Canis lupus familiaris; details: in vivo
[51] = Volume of distribution at steady state in Beagle dog at 2.5 mg/kg, iv; type: ADME, organism-based, Canis lupus familiaris; parameters: dose 2.5 mg/kg, route intravenous; details: in vivo
[52] = Cmax in Beagle dog at 2.5 mg/kg, im; type: ADME, organism-based, Canis lupus familiaris; parameters: dose 2.5 mg/kg, route intramuscular; details: in vivo

- Vd [2]: 1.95 L/kg
- T>MIC [3]: 8.75 h
- MRT inf [5]: 5.13 h
- RatioAUC/MIC [7]: 32.3
- half-life [9]: 3.95 h
- T>MIC [10]: 8.75 h
- AUC(0-inf) [11]: 8490 ng·h/mL
- MRT last [12]: 4.71 h
- AUC(0-inf) [14]: 8210 ng·h/mL
- RatioAUC/MIC [16]: 31.1
- half-life [17]: 4.23 h
- RatioAUC/MIC [19]: 31.1
- MIC (Escherichia coli [20]): 0.06 µg/mL (≈ 0.152 µM)
- RatioAUC/MIC [21]: 15.5
- clearance [22]: 5.17 mL/min/kg
- MAT (Canis familiaris): 0.51 h
- MRT last [23]: 5.31 h
- RatioAUC/MIC [25]: 134.6
- RatioAUC/MIC [26]: 40
- T>MIC [27]: 6.5 h
- AUC(0-t) at 24 h [28]: 8070 ng·h/mL
- T>MIC [29]: 5.6 h
- T>MIC [30]: 9.15 h
- k el [31]: 4.72e-05 s⁻¹
- MIC (Staphylococcus aureus [32]): 0.25 µg/mL (≈ 0.632 µM)
- RatioAUC/MIC [33]: 26.7
- RatioAUC/MIC [34]: 129.8
- RatioAUC/MIC [35]: 16.1
- RatioAUC/MIC [37]: 32.3
- T>MIC [38]: 21.1 h
- MIC (Proteus mirabilis [39]): 0.5 µg/mL (≈ 1.26 µM)
- T>MIC [40]: 9.15 h
- T>MIC [41]: 21.3 h
- MRT inf [42]: 5.69 h
- MIC [43]: 0.25 µg/mL (≈ 0.632 µM)
- AUC(0-t) at 24 h [45]: 8370 ng·h/mL
- k el [46]: 4.72e-05 s⁻¹
- Tmax [47]: 1.15 h
- MIC (Staphylococcus aureus [49]): 0.5 µg/mL (≈ 1.26 µM)
- bioavailability [50]: 100%
- Vd [51]: 1.61 L/kg
- Cmax [52]: 1150 ng/mL
SMILES: C[C@@H]1CN(c2c(F)c(F)c3c(=O)c(C(=O)O)cn(C4CC4)c3c2F)C[C@H](C)N1 [ORBIFLOXACIN]
- Activity (Proteus mirabilis [1]): Dose-dependent effect
- Ratio [4]: 4.61
- Ratio [6]: 19.1
- Ratio [8]: 2.3
- RatioAUC/MIC [13]: 31.8
- Activity (Staphylococcus aureus [15]): Dose-dependent effect
- Activity [18]: Dose-dependent effect
- CFU/ml [24]: 2.06
- Ratio [36]: 29
- Activity (Escherichia coli [44]): Dose-dependent effect
- Ratio [48]: 4.61
